Laboratory results taken from patent publication US11590154B2, “Triple antibiotic fixed-dose combination products, dosing regimen, methods, and kits for treating pulmonary non-tuberculosis mycobacterial infections” (priority 2020, dated 2023).

Columns and labels:
[1] = tested on: MAC bacteria; format: cell-based, Mycobacterium avium complex; settings: 2×MIC; starting inoculum 5.5 log10 CFU/ml
Procedure: In vitro, efficacy was studied in static time-kill kinetics assays (at 2×minimum inhibitory concentration [MIC]), intended to mirror a desired peak serum concentration for all three antibiotics using an established assay. All experiments were performed with a starting inoculum of 5.5 log10 CFU/ml MAC bacteria, higher than the bacterial load expected in the airway secretions of patients with mild nodular-bronchiectatic disease due to MAC.

[2] = tested on: M. avium strain 104; assay: Mouse lung infection model, clarithromycin sensitive strain; format: in vivo, Mycobacterium avium subsp. hominissuis; settings: for reduction in CFU relative to vehicle: 50 mg/kg
Procedure: (§1) Following both the four-week and eight-week treatment period, mice were sacrificed, and lungs and spleens were harvested for CFU counts in each tissue and compared to CFUs recovered in the baseline and vehicle-treated groups. Tissue samples were plated with and without antibiotic on 7H10 agar. Antibiotic plates were made with minimum inhibitory concentrations (MICs) of 8 μg/ml for clarithromycin, and 0.25, μg/ml for both rifabutin (RFB) and clofazimine (CFZ). Plates were made for each of clarithromycin (CLR) alone, clarithromycin plus either rifabutin (CLR+RFB) or clofazimine (CLR+CFZ) and the three-drug combination (CLR+RFB+CFZ). All plates were incubated in a microbiological incubator at 37° C. for 14 days.

[3] = tested on: NTM; settings: mouse models of systemic and lung infection; preclinical literature; cited from earlier work
[4] = 7-day mouse tolerability and PK study; settings: for Cavg (clarithromycin): AUCtlast/24 h; for AUC(0-t) / Cmax / Tmax: female, C57BL/6, mouse, plasma, po, mouse plasma; for AUC(0-t): AUCtlast (clarithromycin); for Cmax: Cmax (clarithromycin); for Tmax: tmax (clarithromycin)
Procedure: Sixty (60) female mice were tested, 12 per treatment groups: […]

[5] = tested on: MAC; assay: MIC of the MAC strains used in the HFS-MAC studies; format: cell-based, Mycobacterium avium complex; settings: Mycobacterium avium
Procedure: The MAC strain used in the HFS-MAC studies was ATCC strain 700898. The study center also had 5 well-characterized clinical strains that have undergone whole-genome sequencing and habituation to the HFS-MAC. Stock cultures of MAC were stored at −80° C. in Middlebrook 7H9 broth with 10% OADC and 10% glycerol. THP-1 monocytes were stored in liquid nitrogen and have been habituated for the HFS-MAC growth conditions.

[6] = tested on: MAC; assay: Lung histopathology of mice infected with MAC and treated for four and eight weeks; format: in vivo, Mycobacterium avium complex; settings: 32 sections per group
Text: Lung and Spleen Histopathology of Mice Infected with MAC and Treated with FDC Components Alone and in Combination for Four and Eight Weeks of Treatment
Each of the experimental group had eight cut examined from each lung (8×2 lungs=16×2 mice=32 sections). Lungs were normal and not showing any pathology at pre-infection.

[7] = tested on: M. avium 104 biofilm; assay: In vitro biofilm model of infection; format: cell-based, Mycobacterium avium subsp. hominissuis; settings: mean ± SD; CLR 1.9-4.3 μg/mL, RFB 0.04 μg/mL, CFZ 0.0005 μg/mL
[8] = tested on: intracellular MAC in THP-1 monocytes; assay: Hollow fiber system model of MAC (HFS-MAC): microbial kill; format: cell-based, Mycobacterium avium complex; settings: HF experiments
Procedure: The anti-mycobacterial effects of CLR, CFZ, and RFB was evaluated in the hollow fiber system model of MAC (HFS-MAC), which recapitulates the intrapulmonary concentrations of these antibiotics. The HFS-MAC allows for an assessment of the contribution of individual drug components in terms of anti-mycobacterial effects and enables exploration of potential synergy, additivity, or antagonism of different doses of drugs and combination regimens on the log-phase growth of intracellular MAC, for both microbial kill and resistance suppression.
A two-part investigation was conducted to assess the contribution of components of various FDC products comprising CLR, CFZ, and RFB in terms of depth and rate of MAC kill and suppression of the emergence of resistance. The anti-MAC activity of each antibiotic component was evaluated as one-drug alone; as two-drug combinations and the three-drug combination. For each combination (singlet, doublet or triplet), the drug concentrations were sampled from the HF fluid bathing MAC-infected cells. […] Anti-MAC activity was evaluated by kill slopes defined as the kill rate constant (and the half-life of kill [reciprocal of the kill rate constant]) as well as the maximum kill, defined as the maximum reduction in MAC CFUs and compared between the different antibiotic combinations.
MAC was grown into log-phase for 4 days, parallel with cultivation of THP-1 monocytes. The THP-1 cells were then infected with MAC overnight at a multiplicity of infection of 1:1. The THP-1 cells were washed to remove extracellular bacteria, and 20 mL of 1×10^6 (6.0 log10) cells/mL were inoculated into each HFS-MAC on Study Day 0. The peripheral compartment is the abluminal hollow fibers space that is also enclosed by the plastic, while the intraluminal space and flow path form the central compartment. […]

[9] = epithelial lining fluid to total plasma/serum; cited from earlier work
[10] = tested on: M. avium; assay: MIC of antibiotics by broth microdilution, M. avium strains of Examples 3 and 4; format: cell-based, Mycobacterium avium subsp. hominissuis
Procedure: Susceptibility testing was conducted using broth microdilution single and twofold dilutions as described in the literature. Suspensions were prepared by swabs on a growth plate with a sterile cotton swab, or were prepared in broth culture. The growth was transferred to a 4.5 mL of phosphate buffer solution (PBS) until the turbidity matched the density of a 0.5 McFarland standard. Suspensions were then vigorously mixed on a vortex mixer for 15 to 20 seconds. The final inoculum was prepared to a bacterial density of 10^5. The tube was inverted 8-10 times to mix the suspension.
as §1

[11] = 100 mg/kg, Day 1, CLR 100 mg/kg alone, oral
[12] = 100 mg/kg, Day 7, CLR 100 mg/kg alone, oral once daily
[13] = 200 mg/kg, Day 1, CLR 200 mg/kg alone, oral
[14] = 200 mg/kg, Day 1, CLR 200 mg/kg with RFB 60 mg/kg and CFZ 30 mg/kg, oral
[15] = 200 mg/kg, Day 7, CLR 200 mg/kg alone, oral once daily
[16] = 200 mg/kg, Day 7, CLR 200 mg/kg with RFB 60 mg/kg and CFZ 30 mg/kg, oral once daily

SMILES: CC[C@H]1OC(=O)[C@H](C)[C@@H](O[C@H]2C[C@@](C)(OC)[C@@H](O)[C@H](C)O2)[C@H](C)[C@@H](O[C@@H]2O[C@H](C)C[C@H](N(C)C)[C@H]2O)[C@](C)(OC)C[C@@H](C)C(=O)[C@H](C)[C@@H](O)[C@]1(C)O [Clarithromycin, clarithromycin]
- activity as single drugs [1]: bacteriostatic activity
- reduction in CFU relative to vehicle ([2]; after eight weeks of treatment): ~2 log unit
- reduction in CFU relative to vehicle ([2]; after four weeks of treatment): approximately 1 log unit
- CFUs resistant to clarithromycin in one animal ([2]; clarithromycin monotherapy treatment): 200 CFUs
- Effective Dose [3]: 50 to 100 mg/kg/day
- Cavg (clarithromycin) ([4]; Day 7, CLR 100 mg/kg alone): 729 ng/mL
- Cavg (clarithromycin) ([4]; Day 7, CLR 200 mg/kg alone): 1,425 ng/mL
- Cavg (clarithromycin) ([4]; Day 7, CLR 200 mg/kg with RFB 60 mg/kg and CFZ 30 mg/kg): 2,704 ng/mL
- AUC(0-t) [4, 11]: 11100 ng·h/mL
- AUC(0-t) [4, 12]: 17500 ng·h/mL
- Cmax [4, 11]: 3400 ng/mL
- Cmax [4, 12]: 6130 ng/mL
- Tmax [4, 11]: 1 h
- Tmax [4, 12]: 1 h
- AUC(0-t) [4, 13]: 36200 ng·h/mL
- AUC(0-t) [4, 14]: 44200 ng·h/mL
- AUC(0-t) [4, 15]: 34200 ng·h/mL
- AUC(0-t) [4, 16]: 64900 ng·h/mL
- Cmax [4, 13]: 9110 ng/mL
- Cmax [4, 14]: 8370 ng/mL
- Cmax [4, 15]: 7430 ng/mL
- Cmax [4, 16]: 10100 ng/mL
- Tmax [4, 13]: 1 h
- Tmax [4, 14]: 1 h
- Tmax [4, 15]: 1 h
- Tmax [4, 16]: 1 h
- MIC ([5]; ATCC700898, MAC (ATCC 700898), laboratory strain): 0.25 µg/mL
- MIC ([5]; Clinical strain #1): 0.125 µg/mL
- MIC ([5]; Clinical strain #2): 0.5 µg/mL
- MIC ([5]; Clinical strain #3): 32 µg/mL
- MIC ([5]; Clinical strain #4): 0.25 µg/mL
- MIC ([5]; Clinical strain #5): 0.125 µg/mL
- Lung Histopathology Findings [6]: Diffuse congestion; bacteria in granulomas
- Colony Forming Unit Concentration, Four Days [7]: 1.35 ± 0.3 × 10^7 CFU/mL
- Colony Forming Unit Concentration, Seven Days [7]: 1.07 ± 0.3 × 10^7 CFU/mL
- effect on CFUs / MAC killing, summary [8]: reductions in colony forming units
- ELF:plasma ratio [9]: 3.4-7.8
- minimum inhibitory concentrations (MICs) used for antibiotic plates ([10]; 7H10 agar plates for tissue CFU counts): 8 µg/mL
- MIC ([10]; Mycobacterium avium, clarithromycin resistant sub-subpopulation, 23 S RNA gene mutation): > 128 µg/mL
